Literature values in patent US4529593A, “Use of gallium salts to treat disorders of calcium homeostasis” (Sloan-Kettering Institute for Cancer Research, priority 1984, dated 1985).

Tests used:
[1] = test system: blood calcium levels; conditions: prior knowledge; cited from earlier work
[2] = test system: bone cells (particularly osteoclasts); conditions: comparatively brief exposure; Minkin 1973, Bockman unpublished; cited from earlier work

For `CO[C@H](C(=O)[C@@H](O)[C@@H](C)O)[C@@H]1Cc2cc3cc(O[C@H]4C[C@@H](O[C@H]5C[C@@H](O)[C@H](O)[C@@H](C)O5)[C@H](O)[C@@H](C)O4)c(C)c(O)c3c(O)c2C(=O)[C@H]1O[C@H]1C[C@@H](O[C@H]2C[C@@H](O[C@H]3C[C@](C)(O)[C@H](O)[C@@H](C)O3)[C@@H](O)[C@@H](C)O2)[C@H](O)[C@@H](C)O1` [Mithramycin], the blood calcium levels [1] is listed as “can also reduce blood calcium levels” and the “loss of bone cells (particularly osteoclasts) number” value [2] is listed as “considerable loss of bone cells”.
